Where two headings read alike, the source gives them in different places.
Tests used:
[1] = system: β-glucosidase; test: β-glucosidase inhibitory assay in 96-well plates (p-NPG, absorbance 405 nm); type: biochemical; details: concentration of 1 mM; end concentration of 100 µM in each well
Procedure: An already established method was employed to perform α- and β-glucosidase inhibitory assays in 96-well plates ([Kazmi et al., 2017]). In this assay, phosphate buffer (0.07 M pH 6.8) was used to prepare 2.5 U/mL of α-glucosidase, 2.0 U/mL of β-glucosidase, and substrate 4-nitrophenyl-β-D-glucopyranoside (p-NPG) (10 mM) solutions. In addition, 1 mM solution of each test compound was prepared in 10% DMSO to achieve an end concentration of 100 µM in each well. Initially, 10 µL of the respective enzyme was incubated with 10 µL of test compounds for 5 min at 37 °C. Subsequently, 10 µL of p-NPG was added in each well followed by an incubation period of 30 min at 37 °C before adding 80 µL of Na2CO3 (200 mM) as a stop solution to each well. The absorbance was measured at 405 nm, and the percentage inhibition for each of the test compounds was determined by the following equation.
Percentage inhibition = 100–[Slope of test compound/Slope of enzyme control] × 100.
Acarbose was used as a standard drug for evaluating the efficacy of test compounds against α- and β-glucosidase. The inhibitory concentration 50 (IC50) for each of the test compound was determined by GraphPad prism version 10.0.

[2] = target: α-glucosidase (Saccharomyces cerevisiae, UniProt P53341); test: biochemical; type: biochemical
α-glucosidase, sequence (P53341 whole entry): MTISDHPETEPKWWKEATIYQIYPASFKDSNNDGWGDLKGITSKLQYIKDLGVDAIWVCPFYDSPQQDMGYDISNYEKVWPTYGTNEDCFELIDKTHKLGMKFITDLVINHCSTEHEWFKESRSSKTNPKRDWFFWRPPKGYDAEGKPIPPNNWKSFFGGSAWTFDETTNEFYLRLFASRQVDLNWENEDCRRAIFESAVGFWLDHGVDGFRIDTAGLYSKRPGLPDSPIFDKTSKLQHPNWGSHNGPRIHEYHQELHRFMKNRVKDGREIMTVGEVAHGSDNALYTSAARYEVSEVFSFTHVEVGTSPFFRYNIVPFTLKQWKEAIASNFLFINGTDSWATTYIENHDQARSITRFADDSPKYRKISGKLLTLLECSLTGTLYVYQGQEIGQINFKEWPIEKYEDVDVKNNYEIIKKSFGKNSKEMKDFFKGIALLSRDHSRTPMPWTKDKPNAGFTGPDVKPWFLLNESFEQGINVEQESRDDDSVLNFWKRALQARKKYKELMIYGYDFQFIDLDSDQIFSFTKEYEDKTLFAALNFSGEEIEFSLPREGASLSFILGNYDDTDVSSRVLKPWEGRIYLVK

[3] = read-out: α-glucosidase inhibition IC50 ± SEM

SMILES	β-glucosidase inhibition %age inhibition [1]	IC50 [2]	reduction in activity on switching chlorine from para- to meta-position ([2]; relative to 5a)	IC50 [2, 3]	melting point	potency relative to acarbose (times/fold more potent) [2]
C[C@H]1O[C@H](O[C@H]2[C@H](O)[C@@H](O)[C@@H](O[C@H]3[C@H](O)[C@@H](O)C(O)O[C@@H]3CO)O[C@@H]2CO)[C@H](O)[C@@H](O)[C@@H]1N[C@H]1C=C(CO)[C@@H](O)[C@H](O)[C@H]1O (stereo partly shown) [Acarbose, reference compound]	63.7%	–	–	–	–	–
Cc1nn(C(=O)c2ccc(Cl)cc2)c(C)c1/N=N/c1ccc(S(N)(=O)=O)cc1 [Compound 5a, (E)-4-((1-(4-Chlorobenzoyl)-3,5-dimethyl-1H-pyrazol-4-yl)diazenyl)benzenesulfonamide]	34.3%	1.13 ± 0.06 µM	–	–	–	–
Cc1nn(C(=O)c2cccc(Cl)c2)c(C)c1/N=N/c1ccc(S(N)(=O)=O)cc1 [Compound 5b, (E)-4-((1-(3-Chlorobenzoyl)-3,5-dimethyl-1H-pyrazol-4-yl)diazenyl)benzenesulfonamide]	32.1%	2.22 ± 0.11 µM	50%	–	–	–
COc1ccc(C(=O)n2nc(C)c(/N=N/c3ccc(S(N)(=O)=O)cc3)c2C)cc1 [Compound 5c, (E)-4-((1-(4-Methoxybenzoyl)-3,5-dimethyl-1H-pyrazol-4-yl)diazenyl)benzenesulfonamide]	12.9%	–	–	3.29 ± 0.09 µM	202 to 205 °C	–
COc1ccc(C(=O)n2nc(C)c(/N=N/c3ccc(S(N)(=O)=O)cc3)c2C)cc1OC [Compound 5d, (E)-4-((1-(3,4-Dimethoxybenzoyl)-3,5-dimethyl-1H-pyrazol-4-yl)diazenyl)benzenesulfonamide]	18.5%	4.53 ± 0.12 µM	–	–	226 to 228 °C	–
Cc1nn(C(=O)c2ccc([N+](=O)[O-])cc2)c(C)c1/N=N/c1ccc(S(N)(=O)=O)cc1 [Compound 5e, (E)-4-((3,5-Dimethyl-1-(4-nitrobenzoyl)-1H-pyrazol-4-yl)diazenyl)benzenesulfonamide]	11.7%	–	–	4.11 ± 0.19 µM	231 to 233 °C	eight
Cc1nn(C(=O)c2cccc([N+](=O)[O-])c2)c(C)c1/N=N/c1ccc(S(N)(=O)=O)cc1 [Compound 5f, (E)-4-((3,5-Dimethyl-1-(3-nitrobenzoyl)-1H-pyrazol-4-yl)diazenyl)benzenesulfonamide]	27.4%	–	–	2.77 ± 0.24 µM	–	–
Cc1ccccc1C(=O)n1nc(C)c(/N=N/c2ccc(S(N)(=O)=O)cc2)c1C [Compound 5g, (E)-4-((3,5-Dimethyl-1-(2-methylbenzoyl)-1H-pyrazol-4-yl)diazenyl)benzenesulfonamide]	21.0%	3.47 ± 0.43 µM	–	–	–	–
Cc1ccc(C(=O)n2nc(C)c(/N=N/c3ccc(S(N)(=O)=O)cc3)c2C)cc1 [Compound 5h, (E)-4-((3,5-Dimethyl-1-(4-methylbenzoyl)-1H-pyrazol-4-yl)diazenyl)benzenesulfonamide]	14.6%	–	–	9.22 ± 0.45 µM	218 to 220 °C	–
Cc1nn(C(=O)c2ccc(Br)cc2)c(C)c1/N=N/c1ccc(S(N)(=O)=O)cc1 [Compound 5i, (E)-4-((1-(4-Bromobenzoyl)-3,5-dimethyl-1H-pyrazol-4-yl)diazenyl)benzenesulfonamide]	11.2%	19.1 ± 1.07 µM	–	–	235 to 237 °C	–
COc1cccc(C(=O)n2nc(C)c(/N=N/c3ccc(S(N)(=O)=O)cc3)c2C)c1 [Compound 5j, (E)-4-((1-(3-Methoxybenzoyl)-3,5-dimethyl-1H-pyrazol-4-yl)diazenyl)benzenesulfonamide]	7.55%	17.9 ± 1.16 µM	–	–	–	–
Cc1n[nH]c(C)c1/N=N/c1ccc(S(N)(=O)=O)cc1 [Compound 5k, (E)-4-((3,5-Dimethyl-1H-pyrazol-4-yl)diazenyl)benzenesulfonamide]	25.1%	28.3 ± 1.45 µM	–	–	188 to 190 °C	–
